Measured values taken from patent US20100256333A1, “Peptide-Based Beta Turn Mimetics” (UNIVERSITY OF MANITOBA, priority 2009, published 2010).
Values joined by “and” are separate entries in the source; they are usually repeats but may differ in a detail not shown here. Equal entries are not always repeated. Where a SMILES comes first, the peptide text is derived from it. [ ]: non-standard residue; d: D form.

Key:
[1] = in CD2Cl2; cited from earlier work
[2] = Prolyl amide cis/trans equilibrium of tetrapeptides by NMR in various solvents; format: physicochemical
Method: Conformational analysis of tetrapeptides 2-11 to 2-13 and 2-16 using NMR. […] The lower tendency of aggregation of glycosylated peptides has previously been reported (runkel et al., 1998). The NMR spectra of all tetrapeptides were measured at the same concentration (8 mM). Intramolecular hydrogen bonding was evaluated by temperature coefficient experiments in DMSO-d6 or H2O/D2O (9/1). Because exchangeable protons engaged in intramolecular hydrogen bonds are typically not influenced by strong hydrogen-bonding solvents (Kopple et al., 1969). The prolyl N-terminal geometry and turn structure were investigated by ROESY experiments (Misicka et al., 1998).
Solvent effects. In addition, the influence of different solvents on the geometry of prolyl N-terminus was studied (Table 14). […] In contrast, peptide 2-12 and reference peptide 2-16 display a solvent effect.

[3] = Prolyl amide trans/cis ratio by 1H-NMR integration (peptide mimics 3-8); format: physicochemical; conditions: for Experimental distribution of cis conformers / Experimental distribution of trans conformers / Cis population of prolyl N-acetyl N′-methylamides: in D2O; for Experimental distribution of cis conformers / Experimental distribution of trans conformers: 1H-NMR integration; for Trans/cis ratio Kt/c / cis % isomer: in water, 500 MHz NMR at 25 °C; for Trans/cis ratio Kt/c: ±0.04; for cis % isomer / Cis population of prolyl N-acetyl N′-methylamides: ±3%
Method: For each compound 3-6, the ratio of trans/cis isomers was calculated by integrating and averaging as many well-resolved proton signals as possible in the ^1H-NMR spectra (Table 2) (taylor et al., 2003).
The cis population of peptide mimics 7 and 8 are presented in Table 3 together with previously published data for proline analog 9 (Beausoleil and Lubell, 1996), 5-methylproline analogs 10 and 11 (Delaney and Madison, 1982) and 5-tent-butylproline analogs 12 and 13 (Beausoleil and Lubell, 1996).
(§1) Thermodynamics. The equilibrium constants for the interconversion of the cis and trans isomers of 3-6 were determined by measuring the peak area of the 1H resonance for the two isomers. Peak areas were measured with the program Spinworks 2.5. Experiments were conducted at 298-360 K. Equilibrium constants (Kt/c=trans/cis ratios) were calculated directly from the peak areas.

[4] = Thermodynamics of isomerization, Kt/c versus temperature, Van't Hoff plots; format: physicochemical; conditions: D2O; for ΔG° (298K) of isomerization: in kcal/mol; for ΔH° of isomerization / ΔS° of isomerization: Van't Hoff plots
Method: Thermodynamics The effects of temperature on the values Kt/c=(kct/ktc) for each compound were measured directly by NMR spectroscopy over the temperature range 25-93° C. The resulting data were analyzed by Van't Hoff plots (FIG. 7). […] In this case the major cis isomer becomes increasingly favored as the temperature decreases. Values for ΔH^o and ΔS^o were calculated from linear least-squares fits of these plots (Table 6).
as §1

[5] = Kinetics of prolyl amide cis/trans isomerization by 1H-NMR inversion-magnetization transfer, Eyring plots; format: physicochemical; conditions: for Free energy of activation ΔG‡ cis to trans / Free energy of activation ΔG‡ trans to cis: at 298K, D2O; for Rate constant ktc (trans to cis): calculated from kct and Kt/c
Method: Kinetics of cis-trans prolyl amide bond isomerization in peptide mimics 3-6. The kinetics of cis/trans isomerization for compounds 3-6 were determined by ^1H-NMR spectroscopy inversion-magnetization transfer experiments (Perrin and Dwyer, 1990; Reimer et al., 1998) in D2O (Table 4). Because the rates for cis/trans isomerization are extremely slow in protic solvents, the inventors performed these experiments at elevated temperatures (Stein, 1993). At 83° C., the trans-to-cis rate constants of isomerizations (ktc) follows the order 4<5≈6<3. A 200-fold rate difference is observed for diastereomeric amides 3 and 4.
The effects of temperature on kct and ktc were analyzed by Eyring plots (FIG. 6) (Eyring, 1935). The values for ΔH^‡ and ΔS^‡ (Table 5) were calculated from linear least squares fits of the data in these plots (Eyring, 1935). […] However, the activation enthalpy is partially compensated by a higher activation entropy.
Inversion-magnetization transfer NMR experiments were performed on Bruker AMX500 spectrometer equipped with selective excitation units, and ^1H and broadband heteronuclear probes. Samples of 3-6 were prepared at a concentration of 0.01 M in D2O. The rate of prolyl peptide bond isomerization can not be detected by this method at room temperature. Experiments were therefore conducted at elevated temperature at 356 K. Temperature settings of the spectrometer were calibrated to within 1° C. by reference to a glycol standard.

[6] = Cis population and equilibrium constant Kc/t of GlcTProLysC peptide mimics by 1H NMR, pH effect; format: physicochemical; conditions: HCl salt; for Equilibrium constant Kc/t / Cis population: in D2O; for Equilibrium constant Kc/t: ±0.04; for Cis population: ±3%; for Kc/t: D2O
Method: The equilibrium constants Kc/t for compounds 3-22 to 3-25 are shown in Table 15 and were determined by integrating and averaging as many distinct proton signals as possible for both the major and minor isomers in the ^1H NMR spectra (Taylor et al., 2003). […] It appears that the stereochemistry at C-5′ has a profound effect on the equilibrium of isomerization. Also, the cis prolyl amide population in esters 3-22 and 3-23, was generally lower than N′-methylamides 3-24 and 3-25. Taylor and co-workers have proposed that the trans conformation of esters is stabilized relative to amides as a result of increased electron donation from the oxygen lone pair of the N-terminal amide carbonyl group to the antibonding orbital of the prolyl C-terminal carbonyl group (FIG. 20) (Taylor et al., 2003).
Effect of pH. Since compound 3-22 to 3-25 have an ionizable amino group, the inventors were interested to study the influence of the ionization state on Kt/c. […] The inventors selected three buffer ranges: pH=2.6, 7.4 and 12.4, to examine the pH effect on the isomerization of 3-24 and 3-25 (Table 16).
Measurement of equilibrium constant: The calculation was based on the integration of well-resolved peaks of the γ-protons, N-terminal methyl group and α-proton in ^1H NMR.

| Equilibrium constant Kc/t [6] | Cis population [6] [%] | SMILES | Trans/cis ratio Kt/c [3] | cis % isomer [3] [%] | ΔG° (298K) of isomerization [4] | ΔH° of isomerization [4] [kcal/mol] | ΔS° of isomerization [4] [cal/mol•K] | Rate constant kct (cis to trans) ([5]; D2O at 83 °C) [s⁻¹] | Activation enthalpy ΔH‡ cis to trans ([5]; Eyring plots in D2O) [kcal/mol] | Activation enthalpy ΔH‡ trans to cis ([5]; Eyring plots in D2O) [kcal/mol] | Activation entropy ΔS‡ cis to trans ([5]; Eyring plots in D2O) [cal/mol.K] | Activation entropy ΔS‡ trans to cis ([5]; Eyring plots in D2O) [cal/mol.K] | Free energy of activation ΔG‡ cis to trans [5] [kcal/mol] | Free energy of activation ΔG‡ trans to cis [5] [kcal/mol] | Rate constant ktc (trans to cis) ([5]; D2O at 83 °C) [s⁻¹] | also measured |
| --- | --- | --- | --- | --- | --- | --- | --- | --- | --- | --- | --- | --- | --- | --- | --- | --- |
|  |  | CC(=O)N[C@@H](CC(C)C)C(=O)N[C@H](Cc1ccccc1)C(=O)N1CCC[C@H]1C(=O)N[C@H](C(=O)N(C)C)C(C)C [Compound 2-16, Ac-Leu-D-Phe-Pro-Val-NMe2] (Ac-L[dF]PV-NMe2) |  |  |  |  |  |  |  |  |  |  |  |  |  | Concentration at which peptide aggregated [1]: ≥ 10000 µM; Equilibrium constant Kt/c ([2]; CD2Cl2, 500 MHz NMR at 25° C.): 19.00; Equilibrium constant Kt/c ([2]; CD3OD, 500 MHz NMR at 25° C.): 3.17; Equilibrium constant Kt/c ([2]; DMSO-d6, 500 MHz NMR at 25° C.): 1.32 |
|  |  | COC(=O)C1N(C(C)=O)C(CO)CC12OC(CO)C(O)C(O)C2O [Compound 3, (1S)-2,3,4,6-Tetrahydroxy-1′-N-acetyl-5′(S)-hydroxymethylene-spiro[1,5-anhydro-D-glucitol-1,3′-L-prolinemethyl ester]] | 3.35 | 23 | −0.80 ± 0.13 | -1.67 ± 0.06 | −2.93 ± 0.20 | 0.18 ± 0.01 | 26.1 | 26.4 | 11.1 | 10.2 | 22.8 | 23.4 | 0.08 ± 0.004 | Experimental distribution of cis conformers [3]: 23±3%; Experimental distribution of trans conformers [3]: 77 ± 3%; Increase in activation enthalpy compared to compounds 4-6 ([5]; Eyring plots in D2O): 3.9 to 6.8 kcal/mol |
| 1.22 | 55 | COC(=O)C1N(C(C)=O)C(CO)CC12OC(CN)C(O)C(O)C2O.Cl [Compound 3-22, (1S)-6-Amino-6-deoxy-1′-N-acetyl-5′(R)-hydroxymethylene-spiro[1,5-anhydro-D-glucitol-1,3′-L-prolinemethyl ester] HCl salt] |  |  |  |  |  |  |  |  |  |  |  |  |  |  |
| 0.23 | 19 | COC(=O)C1N(C(C)=O)C(CO)CC12OC(CN)C(O)C(O)C2O.Cl [Compound 3-23, (1S)-6-Amino-6-deoxy-1′-N-acetyl-5′(S)-hydroxymethylene-spiro[1,5-anhydro-D-glucitol-1,3′-L-prolinemethyl ester] HCl salt] |  |  |  |  |  |  |  |  |  |  |  |  |  |  |
| 3.03 | 75 | CNC(=O)C1N(C(C)=O)C(CO)CC12OC(CN)C(O)C(O)C2O.Cl [Compound 3-24, (1S)-6-Amino-6-deoxy-1′-N-acetyl-5′(R)-hydroxymethylene-spiro[1,5-anhydro-D-glucitol-1,3′-L-prolinemethyl amide] HCl salt] |  |  |  |  |  |  |  |  |  |  |  |  |  | Kc/t ([6]; pD 2.6, ±0.04): 3.03; Kc/t ([6]; pD 7.4, ±0.04): 3.03; Kc/t ([6]; pD 12.4, ±0.04): 2.70 |
| 0.56 | 36 | CNC(=O)C1N(C(C)=O)C(CO)CC12OC(CN)C(O)C(O)C2O.Cl [Compound 3-25, (1S)-6-Amino-6-deoxy-1′-N-acetyl-5′(S)-hydroxymethylene-spiro[1,5-anhydro-D-glucitol-1,3′-L-prolinemethyl amide] HCl salt] |  |  |  |  |  |  |  |  |  |  |  |  |  | Kc/t ([6]; pD 2.6, ±0.04): 0.61; Kc/t ([6]; pD 7.4, ±0.04): 0.56; Kc/t ([6]; pD 12.4, ±0.04): 0.61 |
|  |  | COC(=O)C1N(C(C)=O)C(CO)CC12OC(CO)C(O)C(O)C2O [Compound 4, (1S)-2,3,4,6-Tetrahydroxy-1′-N-acetyl-5′(R)-hydroxymethylene-spiro[1,5-anhydro-D-glucitol-1,3′-L-prolinemethyl ester]] | 0.88 | 53 | 0.19 ± 0.11 | 0.50 ± 0.06 | 1.05 ± 0.16 | 16.19 ± 1.19 | 19.8 | 19.6 | 2.2 | 1.9 | 19.1 | 19.0 | 19.82 ± 1.45 | Experimental distribution of cis conformers [3]: 53±3%; Experimental distribution of trans conformers [3]: 47 ± 3%; Rate acceleration for kct compared to parent compounds 5 and 6 ([5]; D2O at 83 °C): ~6 fold; Rate acceleration for ktc compared to parent compounds 5 and 6 ([5]; D2O at 83 °C): ~20 fold |
|  |  | COC(=O)[C@@H]1[C@@H](O)CCN1C(C)=O [Compound 5, N-acetyl-3(S)-hydroxy-L-proline methyl ester, reference compound] | 4.88 | 17 | −0.95 ± 0.05 | -1.09 ± 0.03 | −0.48 ± 0.08 | 2.63 ± 0.28 | 21.6 | 21.5 | 3.6 | 1.6 | 20.5 | 21.1 | 1.02 ± 0.09 |  |
|  |  | COC(=O)[C@@H]1CCCN1C(C)=O [Compound 6, N-acetyl-L-proline methyl ester, reference compound] | 6.14 | 14 | −1.01 ± 0.08 | -1.21 ± 0.04 | −0.71 ± 0.12 | 2.95 ± 0.12 | 21.9 | 22.5 | 4.8 | 3.9 | 20.5 | 21.4 | 0.82 ± 0.04 |  |
|  |  | CNC(=O)C1N(C(C)=O)C(CO)CC12OC(CO)C(O)C(O)C2O [Compound 7, (1S)-2,3,4,6-Tetrahydroxy-1′-N-acetyl-5′(S)-hydroxymethylene-spiro[1,5-anhydro-D-glucitol-1,3′-L-prolinemethylamide]] |  |  |  |  |  |  |  |  |  |  |  |  |  | Cis population of prolyl N-acetyl N′-methylamides [3]: 38% and 38±3% |
|  |  | CNC(=O)C1N(C(C)=O)C(CO)CC12OC(CO)C(O)C(O)C2O [Compound 8, (1S)-2,3,4,6-tetrahydroxy-1′-N-acetyl-5′(R)-hydroxymethylene-spiro[1,5-anhydro-D-glucitol-1,3′-L-prolinemethylamide]] |  |  |  |  |  |  |  |  |  |  |  |  |  | Cis population of prolyl N-acetyl N′-methylamides [3]: 74% and 74±3% |
